# Data from patent US8524744B2, “Arylamine ketones, their preparation methods, the pharmaceutical composition containing them and their use” (Institute of Mataria Medica, Chinese Academy of Medical …, priority 2004, dated 2013).
# Structures can show the parent of a compound that is named as a salt.
# What was measured:
# [1] = system: angiogenesis of the chronic granulomatous air pouch in mice; test: angiogenesis of the chronic granulomatous air pouch in mice; assay type: in vivo, mouse; settings: orally
# Protocol: 3 ml of air was injected into the dorsal subcutaneous tissue. 24 hr later, 0.5 ml of 0.1% croton oil in Freund's complete adjuvant was injected into the air pouch. Meanwhile the compound or solvent was orally administrated everyday. At sixth day the mice were anaesthetized and kept at 40° C. for 10 min. 1 ml of 1% carmine red containing 5% gelatin was injected into the tail vein. The animal was kept at 0-4° C. for 2-3 hr. The air-pouch tissue was detached, dried in oven at 56° C. for 48 hr, weighed and cut to small pieces. 2 ml of digesting fluid was added into the tissue. The carmine red was solved by NaOH (5 mol·L^−1). The supernatant was isolated and filtered. The absorbance was measured at 540 nm. The content of carmine red was calculated according to the correct curve.
# [2] = target: T1, PAF receptors of macrophages from mouse peritoneal cavity (Mus musculus, UniProt Q62035); test: competitive binding of [3H]-PAF to its receptors of macrophages from mouse peritoneal cavity; settings: 4° C, 150 min, read-out: Ki, competition with [3H]-PAF binding
# T1 construct: The cells in peritoneal cavity were collected after injection for 3-4 days; endogenous in cells; host or cells: adherent peritoneal macrophages of C57BL/6 mice (primary)
# Protocol: 4% of sodium mercaptoethanol was injected into C57BL/6 mouse peritoneal cavity to induce macrophages. The cells in peritoneal cavity were collected after injection for 3-4 days. 500 μl of suspension (5×10^5cells·ml^−1) was inoculated into 24-well culture plate which was placed into the incubator with 5% CO2 at 37° C for 2.5 hr. The non-adherent cells and serum in media were discarded. 490 μl of Tyrode-Hepes solution and 5 μl of [^3H]-PAF (final concentration: 2.8 nmol·L^−1) were added into each well. 5 μl of unlabeled PAF (5 μmol·L^1) was added into the well for the nonspecific binding. The series concentrations of compound were added into the well for the competitive binding and the corresponding volume of solvent was added into the wells for the total binding or the nonspecific binding. The reaction fluid was incubated at 4° C for 150 min and rinsed to wipe off the free labeled ligand. 300 μl of NaOH (0.3 mol·L^−1) was added to lyse the cells. The lysate fluid was transferred into a vial in which 7 ml of scintillation solution was added. The radioactivity strength was measured by scintillation counter.
# [3] = system: production of TNF-α by macrophages from mouse peritoneal cavity; test: production of TNF-α by macrophages from mouse peritoneal cavity (LPS, L929 bioassay); assay type: cell-based; settings: Macrophage, LPS 10 μg·ml^−1, 24 hr, read-out: IC50, inhibition of the production of TNF-α
# Protocol: The macrophages from mouse peritoneal cavity were prepared as described before. 500 μl of cells were inoculated in 48-well plate which was incubated with 5% CO2 at 37° C. for 2.5 hr. The compounds and LPS (final concentration: 10 μg·ml^−1) were added into each well of the plate. After incubating for 24 hr the supernatant was collected. The content of TNF-α was determined by following method. 100 μl of L929 cells (2×10^5cells·ml^−1) with 100 μl of RPMI-1640 or supernatant collected above were inoculated into 96-well plate which incubated under 5% CO2 at 37° C. for 20 hr. The supernatant was discarded. 200 μl of 0.5% crystal violet was added into each well. 10 min later crystal violet outside of the cells was rinsed using normal saline. The cells were dried under room temperature. 100 μl of 10% SDS was added into each well. After the cells were lysed completely the optical density was measured at 570 nm. The well of 1640 media was as the control, The content of TNF-a was evaluated by the percentage of L929 cells survival.
# [4] = system: adjuvant arthritis in rat; test: adjuvant arthritis in rat (therapeutic effect); assay type: in vivo; settings: orally 100 mg·kg^−1 during 19-25th day, SD rats
# Protocol: SD rats (male, 190±10 g) were randomly divided into two groups (treatment and control) with 10 animals for each group. At 0 day 0.1 ml of Freund's complete adjuvant was intracutaneously injected into the right posterior foot. For therapeutic experiment the animals were orally administrated with the compound or solvent during 19-25th day. The perimeter of two ankle joint was measured and the inflammation of anterior foot, ear and tail were judged by scoring for every 3 days until 28 th day.
# [5] = system: delayed hypersensitivity in rats; test: delayed hypersensitivity in rats (type II collagen ear challenge); assay type: in vivo, rat; settings: Dose 100 mg · kg^−1 × 13 d, orally
# Protocol: (§1) 0.1 ml of type II H collagen (2 mg·ml^−1) was intracutaneously injected into the hind foot of Wistar rat (male, 100±10 g) (d0). Seven days later 0.1 ml of type II collagen was intracutaneously injected into the root of tail. At 19th day (d19) the animals inflamed were selected to supply the experiment and randomly divided into two groups. […] The perimeter of the ankle joint of two hind feet, weight of body was measured and the systemic inflammation (including the toes of front and hind feet, ears and tails) was judged by scoring every 3 days. At 41th day 40 μl of 0.2% type II collagen was intracutaneously injected into the right ear. Twenty-four hr later the edema level was evaluated by weighing the ponderance of ear piece (diameter: 8 mm). At 42th day the blood was collected by decapitating. The serum was separated by centrifugating. The contents of antibody for anti-type II collagen, cytokine TNF-α, IL-1β in serum were determined by ELISA kit.
# [6] = system: macrophages from mouse peritoneal cavity; test: chemotaxis of macrophages from mouse peritoneal cavity induced by PAF; assay type: cell-based; settings: Macrophage, 2 hr, read-out: IC50, inhibition of chemotaxis
# Protocol: 4% of sodium mercaptoethanol was injected into C57BL/6 mouse peritoneal cavity to induce macrophages. The cells in peritoneal cavity were collected after injection for 3-4 days. 27 μl of irritant was added into the well at low part of the chemotaxis plate. The filter membrane was covered on the wells and the top part of the plate was assembled on the filter. 55 μl of cells suspension with various concentrations of the compounds or solvent was added into the well at top part of the plate. The plate was placed into incubater with 5% CO2 at 37° C. for 2 hr. The filter was taken out, stained by hematoxylin and dehydrated. The cells migrated into the other side of the filter was counted by microscope.
# [7] = system: IL-1β in serum; test: IL-1β in serum of rat with arthritis induced by type II collagen (ELISA); assay type: in vivo; settings: Dose 100 mg · kg^−1 × 13 d, orally
# Protocol: as §1, with “At 19th day (d19) the animals inflamed were selected to supply the experiment and randomly divided into two groups.” left out
# T1 sequence (Q62035 whole entry): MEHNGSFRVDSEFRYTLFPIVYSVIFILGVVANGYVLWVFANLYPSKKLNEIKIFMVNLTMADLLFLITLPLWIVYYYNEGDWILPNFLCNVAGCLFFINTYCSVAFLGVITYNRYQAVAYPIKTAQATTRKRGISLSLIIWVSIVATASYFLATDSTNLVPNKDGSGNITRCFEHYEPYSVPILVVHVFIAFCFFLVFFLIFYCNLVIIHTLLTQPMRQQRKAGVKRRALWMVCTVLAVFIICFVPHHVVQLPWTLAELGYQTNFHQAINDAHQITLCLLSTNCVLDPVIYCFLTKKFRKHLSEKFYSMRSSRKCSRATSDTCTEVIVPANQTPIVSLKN
compound,measurement,setting,value
"CCOC(=O)C1CCN(CCC(=O)/C=C/c2ccc(Cl)cc2)CC1 [Compound 3, 5-[(4-Ethoxycarbonyl)piperidyl]-1-(4-chlorophenyl)-1-penten-3-one hydrochloride]",Inhibition (%) of angiogenesis (content of carmine red),[1]; Dose 12.5 mg · kg^−1 × 5 d,17.8%
same,Inhibition (%) of angiogenesis (content of carmine red),[1]; Dose 25 mg · kg^−1 × 5 d,20.6%
same,Inhibition (%) of angiogenesis (content of carmine red),[1]; Dose 50 mg · kg^−1 × 5 d,28.4%
same,Ki,[2],4400 nM
same,IC50,[3],34 nM
same,Inhibition (%) of adjuvant arthritis,[4]; 21th day,31.9%
same,Inhibition (%) of adjuvant arthritis,[4]; 23th day,49.3%
same,Inhibition (%) of adjuvant arthritis,[4]; 25th day,54.5%
same,Inhibition (%) of adjuvant arthritis,[4]; 27th day,59.3%
same,Inhibition (%) of delayed hypersensitivity,[5],21.2%
same,IC50,[6],0.477 nM
same,Inhibition (%) of production of IL-1β in serum,[7],45.7%
